Measured values reported in US8431557B2, “Treatment of menopause-associated symptoms” (Besins Healthcare Luxembourg SARL, priority 2006, dated 2013).
Like-named read-outs stand apart in the source and are kept apart here.

How the values were obtained:
[1] = test system: menopausal women; assay: Placebo-controlled study: frequency of moderate to severe hot flushes; type: in vivo, human (women); parameters: key to Frequency of Moderate to Severe Hot Flushes, Mean Change from Baseline / Frequency of Moderate to Severe Hot Flushes, Mean: number of moderate-to-severe hot flushes per day; details: for Frequency of Moderate to Severe Hot Flushes, Mean: Baseline, daily average
Method: (§1) This study was a multi-centred, double-blind, placebo-controlled, parallel group comparison. A total of 351 subjects were enrolled at 78 sites in the United States.
(§2) A two-week, medication free, Pre-Treatment Phase was used to determine subject vasomotor symptoms. Efficacy assessments included the number and intensity of hot flushes per day, and severity of vulvar and vaginal atrophy symptoms.
(§3) The three treatment groups comprised the following dosages: • A 0.375 mg dose (1.25 g of gel @ 0.03%) applied to one arm and 0.9 g of placebo gel applied on the other arm once daily for 12 weeks; • A 0.27 mg dose (0.9 g of gel @ 0.03%) applied to one arm and 1.25 g of placebo gel applied on the other arm once daily for 12 weeks; and • 0.9 g of placebo gel applied to one arm and 1.25 g of placebo gel applied on the other arm once daily for 12 weeks.
(§4) The Treatment Phase was 12 weeks. A pre-treatment period of 2 weeks was used to initially evaluate each subject's vasomotor symptoms.
(§5) All data were analyzed using the approach of Observed Cases (OC).
(§6) For all continuous primary and secondary efficacy parameters, descriptive statistics tables and 2-way ANCOVA with fixed factors treatment and centre, and baseline value as covariate were provided. The interaction of treatment and centre was investigated using 2-way ANCOVA with fixed factors treatment, centre, and treatment-by-centre interaction with baseline value as covariate. To control the Type-I error rate, a step-down procedure using contrasts was performed to compare each treatment group to the placebo group. First, the group with the 0.375 mg dose was compared against placebo at the α=0.05 level (2-sided). If the null hypothesis was rejected, the group with the 0.27 mg dose was compared to placebo at the α=0.05 level (2-sided). Graphs were used to characterize the dose response. If the assumptions of the model were not met, then van Elteren's test with centre as the stratification variable was used in the step-down procedure. For categorical data, Fisher's exact test was used to compare treatment groups.
(§7) The study assessed the following variables: • Mean change in frequency of moderate to severe vasomotor symptoms from baseline to Week 4; • Mean change in frequency of moderate to severe vasomotor symptoms from baseline to Week 12; • Mean change in severity of moderate to severe vasomotor symptoms from baseline to Week 4; • Mean change in severity of moderate to severe vasomotor symptoms from baseline to Week 12; • Mean change in frequency of moderate-to-severe hot flushes at each week; • Mean change in severity of moderate-to-severe hot flushes at each week; • Mean change from baseline to Week 12 in the moderate to severe symptom of vulvar and vaginal atrophy that has been identified by the subject as being the most bothersome to her (vaginal pain, dryness, irritation/itching, bleeding, dysuria);
The baseline value was defined as the daily average of moderate to severe hot flushes during the 2 Pre-Treatment Phase weeks. The “daily average” was calculated from “the mean across the reported days at each week or at Pre-Treatment Phase weeks. If only mild hot flushes were reported on any day, the moderate to severe hot flush value for the subject on that day was zero. If less than 10 days of data were available for the baseline period, the baseline daily average was considered missing.
On a daily basis, the subject recorded the number of hot flushes and rated the intensity of each based on a four-point scale as follows: • 0 (none) • 1 (mild) Sensation of heat without perspiration • 2 (moderate) Sensation of heat with perspiration, but the subject was able to continue with their activity • 3 (severe) Sensation of heat with sweating, sufficiently severe to result in discontinuation of activity Assessment of Vulvar and Vaginal Atrophy Symptom Severity

[2] = test system: menopausal women; assay: Placebo-controlled study: moderate to severe symptom of vulvar and vaginal atrophy; type: in vivo, human (women)
Method: as §1, §2, §3, §4, §5, §6, §7
The severity of symptoms of vulvar and vaginal atrophy (vaginal pain associated with sexual activity, dryness, irritation/itching, bleeding associated with sexual activity, or dysuria) that was identified by the subject as moderate to severe and most bothersome was assessed at Week 1, Week 12, or Early Termination using the following rating scale: […]

[3] = Plasma concentrations of estradiol and unconjugated estrone (HPLC with MS/MS); type: in vivo, human (women); details: for Geometric Mean Concentration of E2 (plasma): Baseline; for concentration at 4 weeks / concentration at 8 weeks / concentration at 12 weeks: female, human, plasma, topical, read-out: Geometric Mean Concentration of E2 (plasma)
Method: A single 10 mL sample of whole blood was collected at baseline, Weeks 4, 8, and 12. To eliminate the possibility of sample contamination, only the specimens obtained from the arm not used for estradiol application were reported.

[4] = cited from earlier work
[5] = 0.27 mg dose (N = 115), Baseline
[6] = 0.27 mg dose (N = 115), Endpoint
[7] = 0.375 mg dose (N = 114), Baseline
[8] = 0.375 mg dose (N = 114), Endpoint

## C[C@]12CC[C@@H]3c4ccc(O)cc4CC[C@H]3[C@@H]1CC[C@@H]2O [estradiol, 17-beta estradiol]
[1]; 0.27 mg dose
  Week at which statistical significance vs placebo was achieved, frequency of moderate to severe hot flushes: 4 Week
  Frequency of Moderate to Severe Hot Flushes, Mean: 11.73
[1]; 0.27 mg dose, Week 1
  Frequency of Moderate to Severe Hot Flushes, Mean Change from Baseline: −1.05
[1]; 0.27 mg dose, Week 2
  Frequency of Moderate to Severe Hot Flushes, Mean Change from Baseline: −2.97
[1]; 0.27 mg dose, Week 3
  Frequency of Moderate to Severe Hot Flushes, Mean Change from Baseline: −4.08
[1]; 0.27 mg dose, Week 4
  Frequency of Moderate to Severe Hot Flushes, Mean Change from Baseline: −4.63
[1]; 0.27 mg dose, Week 5
  Frequency of Moderate to Severe Hot Flushes, Mean Change from Baseline: −5.20
[1]; 0.27 mg dose, Week 6
  Frequency of Moderate to Severe Hot Flushes, Mean Change from Baseline: −5.62
[1]; 0.27 mg dose, Week 7
  Frequency of Moderate to Severe Hot Flushes, Mean Change from Baseline: −6.02
[1]; 0.27 mg dose, Week 8
  Frequency of Moderate to Severe Hot Flushes, Mean Change from Baseline: −6.02
[1]; 0.27 mg dose, Week 9
  Frequency of Moderate to Severe Hot Flushes, Mean Change from Baseline: −6.24
[1]; 0.27 mg dose, Week 10
  Frequency of Moderate to Severe Hot Flushes, Mean Change from Baseline: −6.29
[1]; 0.27 mg dose, Week 11
  Frequency of Moderate to Severe Hot Flushes, Mean Change from Baseline: −6.29
[1]; 0.27 mg dose, Week 12
  Frequency of Moderate to Severe Hot Flushes, Mean Change from Baseline: −6.19
[1]; 0.375 mg dose
  Week at which statistical significance vs placebo was achieved, frequency of moderate to severe hot flushes: 2 Week
  Frequency of Moderate to Severe Hot Flushes, Mean: 12.50
[1]; 0.375 mg dose, Week 1
  Frequency of Moderate to Severe Hot Flushes, Mean Change from Baseline: −1.93
[1]; 0.375 mg dose, Week 2
  Frequency of Moderate to Severe Hot Flushes, Mean Change from Baseline: −4.36
[1]; 0.375 mg dose, Week 3
  Frequency of Moderate to Severe Hot Flushes, Mean Change from Baseline: −5.73
[1]; 0.375 mg dose, Week 4
  Frequency of Moderate to Severe Hot Flushes, Mean Change from Baseline: −6.91
[1]; 0.375 mg dose, Week 5
  Frequency of Moderate to Severe Hot Flushes, Mean Change from Baseline: −7.56
[1]; 0.375 mg dose, Week 6
  Frequency of Moderate to Severe Hot Flushes, Mean Change from Baseline: −7.83
[1]; 0.375 mg dose, Week 7
  Frequency of Moderate to Severe Hot Flushes, Mean Change from Baseline: −8.05
[1]; 0.375 mg dose, Week 8
  Frequency of Moderate to Severe Hot Flushes, Mean Change from Baseline: −8.49
[1]; 0.375 mg dose, Week 9
  Frequency of Moderate to Severe Hot Flushes, Mean Change from Baseline: −8.69
[1]; 0.375 mg dose, Week 10
  Frequency of Moderate to Severe Hot Flushes, Mean Change from Baseline: −8.47
[1]; 0.375 mg dose, Week 11
  Frequency of Moderate to Severe Hot Flushes, Mean Change from Baseline: −8.81
[1]; 0.375 mg dose, Week 12
  Frequency of Moderate to Severe Hot Flushes, Mean Change from Baseline: −8.76
[1]; 0.375 mg dose, Weeks 4 and 12, all 4 criteria
  Efficacy vs. placebo, frequency and severity of moderate to severe hot flushes: efficacious vs. placebo
[2]; 0.27 mg dose
  Improvement in moderate to severe symptoms of vulvar and vaginal atrophy: statistically significant improvement
[2]; [5]
  Symptom of Vulvar and Vaginal Atrophy, number of subjects rated Moderate: 21
  Symptom of Vulvar and Vaginal Atrophy, number of subjects rated Severe: 16
  Symptom of Vulvar and Vaginal Atrophy, percent of subjects rated Severe: (13.9%)
[2]; [6]
  Symptom of Vulvar and Vaginal Atrophy, number of subjects rated Mild: 15
  Symptom of Vulvar and Vaginal Atrophy, number of subjects rated Moderate: 10
  Symptom of Vulvar and Vaginal Atrophy, number of subjects rated None: 6
  Symptom of Vulvar and Vaginal Atrophy, number of subjects rated Severe: 5
  Symptom of Vulvar and Vaginal Atrophy, percent of subjects rated Mild: (13.0%)
  Symptom of Vulvar and Vaginal Atrophy, percent of subjects rated Moderate: (8.7%)
  Symptom of Vulvar and Vaginal Atrophy, percent of subjects rated None: (5.2%)
  Symptom of Vulvar and Vaginal Atrophy, percent of subjects rated Severe: (4.3%)
[2]; 0.375 mg dose
  Improvement in moderate to severe symptoms of vulvar and vaginal atrophy: statistically significant improvement
[2]; [7]
  Symptom of Vulvar and Vaginal Atrophy, number of subjects rated Moderate: 26
  Symptom of Vulvar and Vaginal Atrophy, number of subjects rated Severe: 18
  Symptom of Vulvar and Vaginal Atrophy, percent of subjects rated Moderate: (22.8%)
  Symptom of Vulvar and Vaginal Atrophy, percent of subjects rated Severe: (15.8%)
[2]; [8]
  Symptom of Vulvar and Vaginal Atrophy, number of subjects rated Mild: 17
  Symptom of Vulvar and Vaginal Atrophy, number of subjects rated Moderate: 9
  Symptom of Vulvar and Vaginal Atrophy, number of subjects rated None: 10
  Symptom of Vulvar and Vaginal Atrophy, number of subjects rated Severe: 6
  Symptom of Vulvar and Vaginal Atrophy, percent of subjects rated Mild: (14.9%)
  Symptom of Vulvar and Vaginal Atrophy, percent of subjects rated Moderate: (7.9%)
  Symptom of Vulvar and Vaginal Atrophy, percent of subjects rated None: (8.8%)
  Symptom of Vulvar and Vaginal Atrophy, percent of subjects rated Severe: (5.3%)
[3]; 0.270 mg estradiol dose
  Geometric Mean Concentration of E2 (plasma): 4.2 pg/mL
[3]; 0.375 mg estradiol dose
  Geometric Mean Concentration of E2 (plasma): 3.7 pg/mL
[3]; 0.27 mg
  concentration at 4 weeks: 0.0142 ng/mL
  concentration at 8 weeks: 0.0156 ng/mL
  concentration at 12 weeks: 0.014 ng/mL
[3]; 0.375 mg
  concentration at 4 weeks: 0.0183 ng/mL
  concentration at 8 weeks: 0.0158 ng/mL
  concentration at 12 weeks: 0.0214 ng/mL
[4]; daily topical 0.75 mg dose of estradiol (1.25 g of hydro-alcoholic gel per day)
  serum estradiol level: elevation in the serum estradiol level
[4]; lower estradiol dose than 0.75 mg
  serum estradiol level: did not achieve similar serum levels
